Measured values taken from patent US8846653B2, “Delta-tocotrienol treatment and prevention of pancreatic cancer” (University of South Florida, priority 2006, dated 2014).

How the values were obtained:
[1] = system: BXPC3 cells; assay: MTT assay of BXPC3 cultures, single 50 μM dose; format: cell-based, human; design: MTT assay result, run 1 / MTT assay result, run 2 / MTT assay result, run 3 / MTT assay result, run 4 / MTT assay result, run 5 / MTT assay result, run 6 / MTT assay result, run 7 / MTT assay result, av (average) / MTT assay result, av-blank / MTT assay result, av: unit not given here; conditions: BXPC3, 50 μM; for MTT assay result, av-blank: average minus blank; for MTT assay result, av (average) / MTT assay result, av: average of 7 runs
Experimental: BXPC3 cells were cultured in complete […] media containing 10% fetal bovine serum (FBS) and 1% penicillin-streptomycin, and 1% L-glutamine. BxPc-3 pancreatic cancer cells were cultured in complete RPMI media containing 10% fetal bovine serum (FBS), and 1% penicillin-streptomycin, 1% HEPES buffer, 1% sodium pyruvate and 1% L-glutamine HPDE6-C7 cells were cultured in serum-free keratinocyte SFM media. All cells were maintained at 37° C. in a humidified incubator with 5% CO2. The cells were treated with a single 50 μM dose of vehicle (vehicle only, may be a solvent), T3 alpha (alpha tocotrienol), T3 beta (beta tocotrienol), T3 gamma (gamma tocotrienol), T3 delta (delta tocotrienol), T alpha (alpha tocopherol), T beta (beta tocopherol), TS (tocopherol succinate), GG (geranylgeraniol), SA (succinic acid). A control (no treatment) culture was grown alongside the treatments for comparison. Cell viability was measured using MTT assay at preselect times of 48 or 120 hours after treatment.

[2] = system: human pancreatic ductal epithelial cells transformed with oncogenic K-ras (HPDE-K-ras); assay: Proliferation (MTT) of K-ras transformed ductal epithelial cells; format: cell-based; conditions: 72 hours
Experimental: FIGS. 36A and B are graphs showing the effect of tocotrienols on Human Pancreatic Ductal Epithelial Kras Transformed cells (MTT). (A) Tocotrienols (10-100 μM) had no effect on the proliferation of normal immortalized human pancreatic ductal epithelial cells at 72 hours. […] Points, means; bars, SE (n=3). *p<0.001 vs. vehicle. # p<0.02 vs. vehicle
The Ras effector pathways Raf-MEK-ERK and PI3 kinase-AKT are important for cell proliferation and survival, respectively. Pancreatic cancer cell lines (MIA PaCa2, SW1990, BXPC3) and HPDE 6C7 cells were treated with 8-tocotrienol (20 μM) and cell lysates were collected and prepared at progressive time intervals as described above. Proteins from lysates were run by SDS PAGE and immunoblotted with the following antibodies: Ras, p-cRaf (ser 338), p-MEK1/2, MEK1/2, pERK 44/42, ERK 44/42 (Cell Signaling) and c-Raf (BD Transduction Laboratories). […] The MIA PaCa2 and SW1990 cells were then tested for AKT inhibition. The cells were treated with δ-tocotrienol (20 μM) for 24 and 48 hours and cell lysates were run by SDS-PAGE and immunoblotted for p-AKT and AKT (Cell Signaling). […] Taken together, the inhibition of downstream effectors of oncogenic Ras signaling by δ-tocotrienol without an effect on Ras protein levels may indicate a negative regulatory role of 8-tocotrienol on the function of oncogenic Ras. The pancreatic ductal epithelial cell proliferative inhibition by δ-tocotrienol was tested to see if it occurs through blocking aberrant signal transduction cascades. Immortalized human pancreatic ductal epithelial cells (HPDE) and human pancreatic ductal epithelial cells that were transformed by stable transfection of a mutated K-ras oncogene (HPDE-K-ras) were used to test the. effect of tocotrienols on the proliferation of HPDE and HPDE-K-ras.

Row | Compound | rel amt (relative value set to the control) ([1]; 48 hours) | MTT assay result, av-blank ([1]; 48 hours) | MTT assay result, av (average) ([1]; 48 hours) | MTT assay result, run 1 ([1]; 48 hours) | MTT assay result, run 2 ([1]; 48 hours) | MTT assay result, run 3 ([1]; 48 hours) | MTT assay result, run 4 ([1]; 48 hours) | MTT assay result, run 5 ([1]; 48 hours) | MTT assay result, run 6 ([1]; 48 hours) | MTT assay result, run 7 ([1]; 48 hours) | rel amt (relative value set to the control) ([1]; 120 hours (5 days)) | MTT assay result, av-blank ([1]; 120 hours (5 days)) | MTT assay result, av ([1]; 120 hours (5 days)) | MTT assay result, run 1 ([1]; 120 hours (5 days)) | MTT assay result, run 2 ([1]; 120 hours (5 days)) | MTT assay result, run 3 ([1]; 120 hours (5 days)) | MTT assay result, run 4 ([1]; 120 hours (5 days)) | MTT assay result, run 5 ([1]; 120 hours (5 days)) | MTT assay result, run 6 ([1]; 120 hours (5 days)) | MTT assay result, run 7 ([1]; 120 hours (5 days)) | other results
1 | CC(C)=CCC/C(C)=C/CC/C(C)=C/CC/C(C)=C/CO [GG, geranylgeraniol] | 108 | 0.246 | 0.295 | 0.308 | 0.272 | 0.299 | 0.291 | 0.299 | 0.3 | 0.294 | 106 | 0.610 | 0.665 | 0.621 | 0.655 | 0.672 | 0.663 | 0.657 | 0.724 | 0.66 | 
2 | O=C(O)CCC(=O)O [SA, succinic acid] | 95 | 0.218 | 0.267 | 0.273 | 0.28 | 0.271 | 0.271 | 0.254 | 0.263 | 0.255 | 74 | 0.428 | 0.483 | 0.456 | 0.471 | 0.497 | 0.487 | 0.493 | 0.48 | 0.494 | 
3 | CC(C)=CCC/C(C)=C/CC/C(C)=C/CC[C@]1(C)CCc2c(C)c(O)cc(C)c2O1 [T3 beta, beta tocotrienol] | 95 | 0.216 | 0.265 | 0.263 | 0.261 | 0.27 | 0.254 | 0.278 | 0.255 | 0.274 | 72 | 0.417 | 0.472 | 0.468 | 0.512 | 0.495 | 0.481 | 0.457 | 0.483 | 0.411 | proliferation (MTT) [2]: significantly inhibited
4 | CC(C)=CCC/C(C)=C/CC/C(C)=C/CC[C@]1(C)CCc2cc(O)c(C)c(C)c2O1 [T3 gamma, gamma tocotrienol] | 99 | 0.226 | 0.275 | 0.259 | 0.257 | 0.289 | 0.279 | 0.268 | 0.292 | 0.283 | 66 | 0.377 | 0.432 | 0.418 | 0.446 | 0.446 | 0.457 | 0.428 | 0.412 | 0.42 | proliferation (MTT) [2]: significantly inhibited
5 | Cc1c(O)cc2c(c1C)O[C@](C)(CCC[C@H](C)CCC[C@H](C)CCCC(C)C)CC2 [T gamma] | 115 | 0.262 | 0.311 | 0.32 | 0.356 | 0.335 | 0.304 | 0.277 | 0.28 | 0.306 | 103 | 0.595 | 0.650 | 0.628 | 0.66 | 0.653 | 0.649 | 0.682 | 0.615 | 0.661 | 
6 | Cc1c(C)c2c(c(C)c1OC(=O)CCC(=O)O)CC[C@@](C)(CCC[C@H](C)CCC[C@H](C)CCCC(C)C)O2 [TS, tocopherol succinate] | 100 | 0.229 | 0.278 | 0.271 | 0.274 | 0.296 | 0.271 | 0.282 | 0.274 | 0.277 | 17 | 0.097 | 0.152 | 0.192 | 0.127 | 0.142 | 0.162 | 0.116 | 0.129 | 0.199 | 
